Test results reported in patent US20050019746A1, “Apoptosis-related kinase/GPCRs” (EiRx Therapeutics Limited, priority 2003, published 2005).
Entries after “also recorded” stand apart in the source; their conditions may differ.

Experiments:
Format in all cases: cell-based, human
A549 cells = test: Anchorage Independence/Soft Agar Assay, A549; set-up: PERCENTAGE SURVIVAL RELATIVE TO MS, A549, n = 2: tested at 2 µg; conditions: soft agar; for PERCENTAGE SURVIVAL RELATIVE TO MS, A549, n = 1: experiment n = 1; for PERCENTAGE SURVIVAL RELATIVE TO MS, A549, n = 2: experiment n = 2
Procedure, shortened: (§1)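 Cells were transfected for 4 h with 2 μg siRNA against target genes, then seeded at 5×10^4 cells/well in 0.05% agar/medium and grown 12/14 days at 37 °C, 5% CO2. Crystal violet-stained colonies were counted at 4× and morphology assessed; survival expressed relative to missense siRNA control.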

MCF7 cells = test: Anchorage Independence/Soft Agar Assay, MCF7; set-up: PERCENTAGE SURVIVAL RELATIVE TO MS, MCF7, n = 2: tested at 2 µg; conditions: soft agar; for PERCENTAGE SURVIVAL RELATIVE TO MS, MCF7, n = 1: experiment n = 1; for PERCENTAGE SURVIVAL RELATIVE TO MS, MCF7, n = 2: experiment n = 2
Procedure, shortened: as §1

cancer cell lines = test: Anchorage Independence/Soft Agar Assay, summary over the cell lines; conditions: 14-day anchorage independent assay, over the cell lines examined
Description: The Anchorage Independence/Soft Agar Assay allows assessment of the influence of modulation of gene expression on clonal tumouroid formation by observing and quantifying tumouroid morphology and colony number over an extended period of logarithmic growth thereby ascertaining any cell death is induced.
Cells are seeded into a 6-well plate and allowed to adhere overnight at 37° C. in a humidified atmosphere containing 5% CO2 in air. Cells are next transfected with siRNA Oligomers, at a concentration of 2 μg, against the genes of interest. Transfections continued for 4 hrs after which the transfection solution is removed and cells are refed with fresh medium and allowed incubate overnight. Transfected cells are next harvested for seeding into soft agar assay as described below. Cells are seeded at 5×10^4 cells per well of a 6 well plate and incubated over a 12/14-Day period whilst proliferating in a 0.05% Agar/Medium cell suspension at 37° C. in a humidified atmosphere containing 5% CO2 in air. Colonies formed are subsequently stained with Crystal Violet, their morphology is assessed and colonies formed are enumerated at a 4× magnification.
The cytotoxic effect of each gene is determined by a reduction in colony number compared to our MS control, but any influence on the morphology of the colony is also noted.
As an internal reference, the known survival gene ‘Survivin’ was also targeted by siRNA.

HCT15 cells = test: Anchorage Independence/Soft Agar Assay, HCT15; set-up: PERCENTAGE SURVIVAL RELATIVE TO MS, HCT15, n = 2: tested at 2 µg; PERCENTAGE SURVIVAL RELATIVE TO MS, HCT15, n = 1: tested at 2 µg siRNA; conditions: soft agar; for PERCENTAGE SURVIVAL RELATIVE TO MS, HCT15, n = 1: experiment n = 1; for PERCENTAGE SURVIVAL RELATIVE TO MS, HCT15, n = 2: experiment n = 2
Procedure, shortened: as §1

[1] = system: target gene mRNA in PC3 cells; test: Validation of siRNA efficacy by QPCR in PC3 cells; conditions: PC3, siRNA 50 nM, RNAiFect, 24 hours post transfection, relative to non-silencing control, normalised to GAPDH
Description: To evaluate the ability of each siRNA oligonucleotides to knock down its intended target, each siRNA was validated in a cell line known to express the target, in this example the genes were tested PC3 cells, which were shown by expression profiling to express all target genes. The efficacy of knockdown was measured using QPCR. Cells are plated at a density of 2×10^4 cells in each well of a 24 well plate and incubated at 37° C. overnight. The siRNA is transfected into cells using RNAiFect reagent (Qiagen) with siRNA at a concentration of 50 nM according to manufacturer's instructions. Additional wells of cells are transfected with 50 nM of a non-silencing control (Qiagen). […] Transfected cells are harvested at 24 hours post transfection, and RNA extracted using RNeasy Miniprep columns with an on-column DNase digestion step. The RNA is eluted in 30 μl of RNase-free H2O. cDNA is synthesised from 12 μl of this RNA using an anchored oligo(dT) primer (Sigma) and Transcriptor reverse transcriptase (Roche) at 55° C. in a total volume of 20 μl following the manufacturer's instructions. The resulting cDNA is diluted to a total of 200 μl with H2O and 10 μl used in each QPCR reaction. The levels of transcript are compared by QPCR, relative to the non-silencing control. QPCR is performed using primers, conditions and methodology identical to those used for expression profiling, see Table 8. All reactions were performed in duplicate and the average Ct values calculated. For each sample, the Ct of each target gene in normalised to GAPDH. Relative expression between cells transfected with target or non-silencing siRNA, normalised to GAPDH expression, is determined by the comparative Ct method.

Substance | PERCENTAGE SURVIVAL RELATIVE TO MS, A549, n = 1 (A549 cells) [%] | PERCENTAGE SURVIVAL RELATIVE TO MS, A549, n = 2 (A549 cells) [%] | PERCENTAGE SURVIVAL RELATIVE TO MS, MCF7, n = 1 (MCF7 cells) [%] | PERCENTAGE SURVIVAL RELATIVE TO MS, MCF7, n = 2 (MCF7 cells) [%] | cell death / apoptosis in the soft agar assay (cancer cell lines) | PERCENTAGE SURVIVAL RELATIVE TO MS, HCT15, n = 1 (HCT15 cells) [%] | PERCENTAGE SURVIVAL RELATIVE TO MS, HCT15, n = 2 (HCT15 cells) [%] | Decrease in expression of target gene [1] [%]
siRNA PSKH1: sense GAACCUGCACCGCUCCAUAtt, antisense UAUGGAGCGGUGCAGGUUCtt (sense GAACCUGCACCGCUCCAUATT; antisense UAUGGAGCGGUGCAGGUUCTT; chemistry not given here) | 65.8 | 32.5 | 82.6 | 11.9 | modulates apoptosis; also recorded: significant cell death in all cell lines | 37.2 | 41 | 
siRNA ROCK: siRNA duplex, sense UACAUGCCUGGUGGAGAUCtt, antisense GAUCUCCACCAGGCAUGUAtt; same in Tables 9 and 11 (sense UACAUGCCUGGUGGAGAUCTT; antisense GAUCUCCACCAGGCAUGUATT; chemistry not given here) |  |  |  |  |  |  |  | 65.0
siRNA GRAF: siRNA duplex, sense GCGGAAGUUUGCAGAUUCCtt, antisense GGAAUCUGCAAACUUCCGCtt; same in Tables 9 and 11 (sense GCGGAAGUUUGCAGAUUCCTT; antisense GGAAUCUGCAAACUUCCGCTT; chemistry not given here) |  |  |  |  |  |  |  | 64.5
siRNA NTKL: siRNA duplex, sense UGUGGAGCUGAUGAAGCACtt, antisense GUGCUUCAUCAGCUCCACAtt; same in Tables 9 and 11 (sense UGUGGAGCUGAUGAAGCACTT; antisense GUGCUUCAUCAGCUCCACATT; chemistry not given here) |  |  |  |  |  |  |  | 82.9
siRNA Survivin: positive control siRNA, sense GAACUGGCCCUUCUUGGAGtt, antisense CUCCAAGAAGGGCCAGUUCtt (sense GAACUGGCCCUUCUUGGAGTT; antisense CUCCAAGAAGGGCCAGUUCTT; chemistry not given here) [reference compound] | 53 | 17.7 | 80.3 | 50.3 | induced cell death in all cell lines | 71.5 | 48.6 | 82.2
siRNA MKNK: sense UACAUGGCCCCUGAGGUAGtt, antisense CUACCUCAGGGGCCAUGUAtt (sense UACAUGGCCCCUGAGGUAGTT; antisense CUACCUCAGGGGCCAUGUATT; chemistry not given here) | 85 | 21.6 | 25.9 | 4 | induced cell death consistently in 2 of the cell lines examined | 66.3 | 90.9 | 
siRNA MPSK1: sense GGGUUAUGCCCACAGAGACtt, antisense GUCUCUGUGGGCAUAACCCtt (sense GGGUUAUGCCCACAGAGACTT; antisense GUCUCUGUGGGCAUAACCCTT; chemistry not given here) | 59.4 | 19.5 | 35.8 | 30.3 | significant cell death in all cell lines | 42.3 | 62.2 | 
siRNA EKI: siRNA duplex, sense GCACUGGAUCCAAAGCAUGtt, antisense CAUGCUUUGGAUCCAGUGCtt; same in Tables 9 and 11 (sense GCACUGGAUCCAAAGCAUGTT; antisense CAUGCUUUGGAUCCAGUGCTT; chemistry not given here) |  |  |  |  |  |  |  | 76.0
